Values after ≈ are worked out from the molar mass of the structure shown. Where two headings read alike, the source gives them in different places.
How the values were obtained:
[1] = Cytotoxicity assay (neutral red); type: cell-based, murine; conditions: mouse, RAW 264.7 macrophage cells
Protocol: (§1) Cytotoxicity of alexidine, MMV1580844, MMV642550 and MMV019724 was performed using three cell lineages: RAW 264.7, a murine macrophage culture; A549, adenocarcinomic human alveolar basal epithelial cells; and HaCaT, a spontaneously transformed aneuploid immortal keratinocyte cell line from adult human skin. Cells were grown in DMEM (Dulbecco’s Modified Eagle’s Medium, Sigma-Aldrich, MO, USA), supplemented with 10% fetal bovine serum and incubated for 48 h at 37 °C with 5% CO2 in the presence of serially diluted concentrations (0.3–50 μM) of each compound. Cell viability was measured using the neutral red (NR) assay and quantified using a spectrophotometer at 595 nm (SpectraMax® i3x, Molecular Devices®, San José, CA, USA).

R. oryzae [2] = assay: Antifungal susceptibility testing (broth microdilution, MIC and MFC); type: cell-based, Rhizopus oryzae; conditions: for Selectivity Index (SI), Planktonic Cell: R. oryzae, from CC50 and MIC50 of planktonic cells; for MIC50 / MFC: Rhizopus arrhizus, 48 h; for MIC50: lowest concentration that inhibits 50% of fungal growth; for MFC: subculture in drug-free medium
Protocol: (§2) The susceptibility of the Rhizopus species to MMV396785 (alexidine), MMV1580844, MMV642550 and MMV019724 was determined using the broth microdilution method, according to EUCAST protocols, with modifications. Posaconazole and amphotericin B were also used as reference antifungal drugs because they are commonly used for the treatment of mucormycosis. […] A standardized suspension of conidia (2 × 10^5/mL) was added to the wells and incubated for 48 h at 37 °C, in a 5% CO2 atmosphere. Fungal growth was analyzed via spectrophotometry readings at 600 nm and cell viability was assessed using the XTT reduction assay. Minimum inhibitory concentration (MIC) of each compound was defined as the lowest concentration that inhibits 50% of fungal growth, because these fungi are highly resistant to antifungal drugs and a reduction in half of their growth is relevant. […] MFC values were defined as the lowest drug concentration able to arrest fungal growth.

[3] = tested on: R. microsporus preformed biofilm; assay: Preformed biofilm assay; type: cell-based, Rhizopus microsporus; conditions: for Selectivity Index (SI), Preformed Biofilm: R. microsporus, based on biofilm viability parameter
Protocol: (§3) For the preformed biofilm assay, cells were cultured as described above in the absence of the compounds. […] An additional incubation of 24 h at 37 °C was performed to evaluate the anti-biofilm activity. Evaluation of both biofilm formation and preformed biofilms was performed using three parameters as previously described. Crystal violet, safranin and XTT assays were used to analyze the overall biomass, extracellular matrix and metabolic activity, respectively.

R. oryzae UCP1295 = assay: Screening of the Pandemic Response Box library at 5 µM; type: cell-based, Rhizopus oryzae; conditions: for inhibition at 5 µM: Rhizopus arrhizus, UCP1295, 48 h; for Viability Inhibition (XTT): XTT reduction
How it was run: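 Compounds at 5 μM in RPMI 1640 with 2% glucose and MOPS (0.165 mol/L, pH 7.2), with conidia at 2 × 10^5/mL, incubated 48 h at 37 °C in 5% CO2. Growth read by OD at 600 nm; hits defined as ≥60% inhibition. Posaconazole (5 μM) and 1% DMSO as controls.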

R. microsporus = assay: Antifungal susceptibility testing (broth microdilution, MIC and MFC); type: cell-based, Rhizopus microsporus var. microsporus; conditions: for Selectivity Index (SI), Planktonic Cell: R. microsporus, from CC50 and MIC50 of planktonic cells; for MIC50 / MFC: Rhizopus microsporus, 48 h; for MIC50: lowest concentration that inhibits 50% of fungal growth; for MFC: subculture in drug-free medium
Protocol: as §2

[4] = Cytotoxicity assay (neutral red); type: cell-based; conditions: human
Protocol: as §1

R. oryzae [5] = assay: Antifungal drug synergy assay, Bliss independence model; type: cell-based, Rhizopus oryzae; parameters: key to Interaction: S, synergistic interaction; A, antagonist interaction; Efficacy of Combined Drugs, E obs / Efficacy of Combined Drugs, E exp: concentration or dose not given beside the values; conditions: for Efficacy of Drugs Alone (% of Inhibition), MIC50: at MIC50; for Efficacy of Drugs Alone (% of Inhibition), ½ MIC50: at ½ MIC50; for ΔE: Eobs minus Eexp; for Efficacy of Combined Drugs, E exp: expected by Bliss calculation
Protocol: Synergistic interactions were evaluated using the checkerboard method according to EUCAST guidelines (EUCAST 2008). R. oryzae conidia (2 × 10^5/mL) were grown in 96-well plates containing supplemented RPMI in the presence of the following selected compounds: […] An inhibition of at least 50% was defined as the cut-off for minimum inhibitory concentration (MIC). Interactions were determined by the fractional inhibitory concentration index (FICI), which was calculated using the following formula: (MIC combined/MIC drug A alone) + (MIC combined/MIC drug B alone). […] The Bliss independence model calculation was performed according to […] colleagues and Zhao and colleagues. The following formula was used to assess drug interaction: […] The results were classified as follows: synergistic effect when Eobs > Eexp; indifference when Eobs = Eexp; antagonistic effect when Eobs < Eexp.

[6] = tested on: R. stolonifer preformed biofilm; assay: Preformed biofilm assay; type: cell-based, Rhizopus stolonifer; conditions: for Selectivity Index (SI), Preformed Biofilm: R. stolonifer, based on biofilm viability parameter
Protocol: as §3

[7] = tested on: R. oryzae, R. microsporus and R. stolonifer; assay: Antifungal susceptibility testing, values stated over the three species; type: cell-based; conditions: over the three Rhizopus species
Protocol: as §2

[8] = Table S1, mean of the four values, read-out: % of growth inhibition, Mean
[9] = optical density 600 nm, read-out: Growth Inhibition
[10] = A549 alveolar basal epithelial cells, A549, 48 h
[11] = preformed biofilm, 24 h treatment

Compound	CC50 at 48 h [1] [µM]	MIC50 (R. oryzae [2]) [µM]	MFC (R. oryzae [2]) [µM]	inhibition at 5 µM (R. oryzae UCP1295; [8]) [%]	inhibition at 5 µM (R. oryzae UCP1295; [9]) [%]	Viability Inhibition (XTT) (R. oryzae UCP1295) [%]	MIC50 (R. microsporus) [µM]	MFC (R. microsporus) [µM]	CC50 at 48 h [4, 10] [µM]	CC50 at 48 h ([4]; HaCaT keratinocyte cells) [µM]	Efficacy of Drugs Alone (% of Inhibition), MIC50 (R. oryzae [5])	Efficacy of Drugs Alone (% of Inhibition), ½ MIC50 (R. oryzae [5])	Efficacy of Combined Drugs, E obs (R. oryzae [5]; combined with Amphotericin B) [%]	Interaction (R. oryzae [5]; combined with Amphotericin B)	ΔE (R. oryzae [5]; combined with Amphotericin B) [%]	Efficacy of Combined Drugs, E exp (R. oryzae [5]; combined with Amphotericin B) [%]	Efficacy of Combined Drugs, E obs (R. oryzae [5]; combined with Posaconazole) [%]	Interaction (R. oryzae [5]; combined with Posaconazole)	ΔE (R. oryzae [5]; combined with Posaconazole) [%]	Efficacy of Combined Drugs, E exp (R. oryzae [5]; combined with Posaconazole) [%]	other results
Oc1c(C(Nc2nc3ccccc3s2)c2ccc(OC(F)F)cc2)ccc2cccnc12 (stereo not shown) [MMV019724]	> 50	0.63 (≈ 0.283 µg/mL)	> 20	69.6	70	77	1.25 (≈ 0.562 µg/mL)	> 20	> 50	> 50	62.0 % of Inhibition	32.5 % of Inhibition	74.8	A	−7.3	82.1	58.0	A	−5.6	63.6	Selectivity Index (SI), Planktonic Cell (R. oryzae [2]): >79.4; Selectivity Index (SI), Preformed Biofilm [3]: >40; Selectivity Index (SI), Planktonic Cell (R. microsporus): >40; Selectivity Index (SI), Preformed Biofilm [6]: >40; MIC [7]: 0.63 to 1.25 µM (≈ 0.283 to 0.562 µg/mL)
CCCCC(CC)CNC(=N)NC(=N)NCCCCCCNC(=N)NC(=N)NCC(CC)CCCC (stereo not shown) [MMV396785, Alexidine, reference compound]	> 50	1.25 (≈ 0.636 µg/mL)	10 (≈ 5.09 µg/mL)	70.1	70	89	1.25 (≈ 0.636 µg/mL)	1.25 (≈ 0.636 µg/mL)	> 50	> 50	67.6 % of Inhibition	21.5 % of Inhibition	85.9	S	1.7	84.2	91.9	A	−4.7	96.6	Selectivity Index (SI), Planktonic Cell (R. oryzae [2]; listed as Alexidina MMV396785): >40; Selectivity Index (SI), Preformed Biofilm ([3]; listed as Alexidina MMV396785): >20; concentration giving significant decrease in biofilm parameters [3, 11]: 2 × MIC; Viability Inhibition (XTT) (R. oryzae UCP1295; listed as alexidine): about 89%; Selectivity Index (SI), Planktonic Cell (R. microsporus; listed as Alexidina MMV396785): >40; Selectivity Index (SI), Preformed Biofilm ([6]; listed as Alexidina MMV396785): >20; concentration giving significant decrease in biofilm parameters [6, 11]: 4 × MIC; MFC [7]: 1.25 to 10 µM (≈ 0.636 to 5.09 µg/mL); MIC [7]: 0.63 to 1.25 µM (≈ 0.321 to 0.636 µg/mL)
CCc1nc(N)nc(N)c1C#CC(C)c1cc(OC)cc(-c2ccncc2)c1 (stereo not shown) [MMV1580844]	> 50	0.08 (≈ 0.0299 µg/mL)	> 20	70.2	71	88	0.08 (≈ 0.0299 µg/mL)	> 20	> 50	> 50	63.5 % of Inhibition	12.6 % of Inhibition	60.5	S	2.3	58.2	60.2	A	−17.4	77.6	Selectivity Index (SI), Planktonic Cell (R. oryzae [2]): >625; Selectivity Index (SI), Preformed Biofilm [3]: >156.3; Selectivity Index (SI), Planktonic Cell (R. microsporus): >625; Selectivity Index (SI), Preformed Biofilm [6]: >312.5; MIC [7]: 0.08 µM (≈ 0.0299 µg/mL)
